Values quoted from earlier work as cited in patent US20240335458A1, “OPHTHALMIC COMPOSITION FOR THE TREATMENT OF VISUAL DISORDERS” (FOODVICA, S.A. DE C.V., priority 2021, published 2024).

Assays:
[1] = system: protein aggregates obtained from surgically removed cataracts; details: 2 mg/ml protein aggregates, 10 µM and 200 μM, 6-day treatment at room temperature
[2] = system: sodium selenite-induced cataract
[3] = system: cataracts; details: 14 intravitreal injections of lanosterol nanoparticles (final dose 1.4 mg) plus 50 μL drops 3 times a day for 6 weeks, 7 dogs
[4] = system: rat lens opacities; details: 15 mM lanosterol in liposomes
[5] = system: age-related cataract human lens nuclei; details: 25 mM lanosterol solution, 6 days
[6] = system: natural cataract lens of rabbits; details: 25 mM lanosterol, 6 days

Compound: C[C@H](CCCC(C)(C)O)[C@H]1CC[C@H]2[C@@H]3CC=C4C[C@@H](O)CC[C@]4(C)[C@H]3CC[C@]12C [25-hydroxycholesterol]
- Macroscopic clearing of protein aggregate solutions [1]: dramatically cleared the originally dark solutions in a dose-dependent way

Compound: COc1cc(/C=C/C(=O)CC(=O)/C=C/c2ccc(O)c(OC)c2)ccc1O [curcumin]
- Levels of lipid peroxidation, enzymatic and non-enzymatic antioxidants ([2]; curcumin 75 mg/kg body weight single dose, sodium selenite 15 μM/kg body weight): significant reduction
- aA- and aB-crystallin and Hsp 70 expression ([2]; selenite-induced cataractogenesis): suppressed aA- and aB-crystallin expression induced by selenite and Hsp 70

Compound: CC(C)=CCC[C@@H](C)[C@H]1CC[C@@]2(C)C3=C(CC[C@]12C)[C@@]1(C)CC[C@H](O)C(C)(C)[C@@H]1CC3 [lanosterol]
- Reduction of cataract stage [3]: reduce up to two degrees the stage of cataracts
- Macroscopic clearing of protein aggregate solutions [1]: dramatically cleared the originally dark solutions in a dose-dependent way
- Reversal of lens opacities [4]: failed to reverse the opacities or prevent progression
- Reversal of opacification of cataract nuclei [5]: did not reverse the opacification
- Lens clarity before and after treatment [6]: solid trend towards reduction of cataract severity
